Tests used:
[1] = tested on: E0771 tumor; assay: Infiltration of immune cells inside E0771 tumor, flow cytometry; assay type: in vivo, mouse; settings: 0.37 μg/kg DDA, day 15 post treatment
Description: FIGS. 5A-D. Infiltration of immune cells inside E0771 tumor. (A-D) These bar graphs represent the ratio between (A) Th1 (CD4+ Tbet+) and Treg (CD4+ Foxp3+), (B) CTL cells (CD8+ Granzym B+) on No CTL cells (CD8+ Granzym b−), (C) macrophage type M1 (CD14+ CCR7+ IFNg+) and type M2 (CD14+ CD206+ IL10+) (D) dendritic cells (CD11c+) and myeloid derived suppressive cells (MDSC: CD11b+CD11clow, LY6C+ly6Gint) infiltrated inside the tumor. The tumors were removed at day 15 post treatment with DDA at 0.37 μg/kg (b) or with the solvent vehicle (control) (a). To observe the cytotoxic CD8 T cells, the tumor suspension was prealably stimulated 2 h in vitro with a cocktail of PMA (50 ng/ml), ionomycine (500 ng/ml) and golgistop (concentration from manufacture BD Pharmagen), then the cells were stained with specific antibodies.
Tumor dissociation: Freshly excised tumors were trimmed of skin, fat, and necrotic tissue and minced in cold Hanks' medium. The minced tumor pieces were placed in an enzyme solution consisting of collagenase type D at 1 mg/ml and DNase type 1 at 20 μg/ml in Hanks' medium at 37° C. After 30 min of dissociation, the cell suspension was collected, washed with Hank's medium, and then suspended in PBS 1×, 0.5% BSA, 0.02% azide and […] EDTA (Facs medium).
Analysis of immune cells by flow cytometry. Immune cells from the tumors were stained with the indicated fluorescent-labelled antibodies: anti mouse α-CD4, α-CD8, α-T-bet, α-Foxp3, α-granzyme B, α-PD-1, α-CD44, α-Ly6C, α-Ly6G, α-CD11b, α-CD11c, α-CD206, α-CD86, α-IL10, α-IL-6, α-IL-4 purchased from eBioscience or Biolegend. Intracellular staining for T-bet, Foxp3, IFNg, Granzyme B, IL-10, IL-4 and IL-6 was performed according the manufacturer's protocol from Biolegend. To observe the cytotoxic CD8 T cells, the tumor suspension was prealably stimulated 2 h in vitro with a cocktail of PMA (50 ng/ml), ionomycine (500 ng/ml) and golgistop (concentration from manufacture BD Pharmingen), then the cells were stained with specific antibodies. To set the gates, flow cytometry dot plots were based on comparison with isotype control. Flow cytometry measurements of single-cells suspension were performed on a Fortessa 20X (BD pharmingen) and data were analyzed using FlowJo software.

[2] = tested on: tumor side lymph nodes; assay: T cells in tumor side lymph nodes after DDA, flow cytometry; assay type: in vivo, mouse
Method: FIGS. 20A-C. The priming of T cells inside tumor side lymph node is dependent of the LXR expressed by tumor cells. Animals were grafted with tumor cells and treated as described in FIG. 2. At the end of the experiments, tumor side lymph nodes (mesenteric, auxiliary and brachial) were collected, dissociated and stimulated in vitro with 50 ng/ml of PMA (Sigma), 500 ng/ml Ionomycin (Sigma) and 1/1000 of golgi stop (ebiosicence) during 3 h at 370 to analyze by flow cytometry the phenotype of T cells. (A-C) The dots in the graphs represent the relative number of (A) T regulatory cells (CD4+ Foxp3+), (B) Th1 CD4+ cells (CD4+ T-bet+) and (C) cytotoxic CD8+ T cells (CD8+ Granzym B+ IFNγ+). The vehicle was normalized to 1. Graphs are representative of three independent experiments.
Organ dissociation and flow cytometry. The tumor-side lymph nodes were dissociated manually while for the tumor, gentlemac technology (Miltenyi) was used. Then, the suspension of tumor cells or lymph node were stimulated with 50 ng/ml of PMA (Sigma), 500 ng/ml Ionomycin (Sigma) and 1/1000 of golgi stop (ebiosicence) during 3 h at 37° C. After that, the single cell suspension were stained with the indicated fluorescent-labelled antibodies: anti mouse α-CD4, α-CD8, α-T-bet, α-Foxp3, α-granzyme B, α-PD-1, α-CD44, α-Ly6C, α-Ly6G, α-CD11b, α-CD11c, α-CD206 IL10, α-CD86 as well as live/dead stain purchased from eBioscience or Biolegend. Intracellular staining for T-bet, Foxp3, and Granzyme B, was performed according the manufacturer's protocol from Biolegend. To set the gates, flow cytometry dot plots were based on comparison with isotype control. Flow cytometry measurements of single-cells suspension were performed on a Fortessa 20X (BD pharmingen) and data were analyzed using FlowJo software.

[3] = tested on: tumor cells implanted in mice; settings: de Medina et al., Nat Commun. 2013; cited from earlier work

SMILES: CC(C)CCCC(C)[C@H]1CCC2C3C[C@@H](NCCc4cnc[nH]4)[C@@]4(O)C[C@@H](O)CC[C@]4(C)C3CC[C@@]21C (stereo partly drawn) [DDA, 5a-hydroxy-6b-[2-(1H-imidazol-4-yl)ethylamino]cholestan-3b-ol]
- infiltration into the tumor of inactivated CD8 (No CTL) [1]: decreases
- infiltration into the tumor of macrophage type M2 [1]: decreases
- infiltration into the tumor of myeloid derived suppressive cells (MDSC) [1]: decreases
- infiltration into the tumor of regulatory CD4 Treg cells [1]: decreases
- infiltration of CD4 Th1 cells inside the tumor [1]: increases
- infiltration of activated CD8 (CTL) inside the tumor [1]: increases
- infiltration of dendritic cells (DC: CD11c+) inside the tumor [1]: increases
- infiltration of macrophage type M1 inside the tumor [1]: increases
- number of Th1CD4+ cells infiltrated into tumor side lymph nodes ([2]; 0.37 μg/kg DDA (FIG. 20)): increases
- number of Treg cells infiltrated into tumor side lymph nodes ([2]; 0.37 μg/kg DDA (FIG. 20)): decreases
- number of cytotoxic CD8 T cells infiltrated into tumor side lymph nodes ([2]; 0.37 μg/kg DDA (FIG. 20)): increases
- LXRβ dependence of priming of T cells inside tumor side lymph nodes ([2]; shLXRβ vs LXRβ expressing tumors (FIG. 20)): dependent of the LXRβ
- animal survival [3]: improves animal survival
- growth of tumor cells implanted in mice [3]: control the growth
- infiltration of CD3+ T lymphocytes and CD11c+ dendritic cells [3]: increased infiltration

— patent US20230138400A1, “METHODS AND PHARMACEUTICAL COMPOSITIONS FOR REPROGRAMING IMMUNE ENVIRONMENT IN A SUBJECT IN NEED THEREOF” (INSERM (INSTITUT NATIONAL DE LA SANTE ET DE LA RECHERCHE …, priority 2016, published 2023)
